Several values for one entry are separate records, joined by “and”; a condition that tells them apart may be missing. Equal values may be shown once. Read-outs that look alike come from different tables or passages of the source.
Legend:
[1] = molecular target: T1, PDEδ (Homo sapiens, UniProt O43924); assay: PDEδ levels by Western blot in Dox-inducible DDB1 knockout KBM7 cells; assay type: cell-based; parameters: endogenous in cells; host or cells: Dox-inducible DDB1-knockout KBM7; conditions: 5 (10 μM) 8 h, Supplementary Fig. 4f
Procedure: (§1) Cells were washed with PBS and lysed in lysis buffer (50 mM Tris-HCl, pH 7.4, 150 mM NaCl, 1% Triton X-100, 1% sodium deoxycholate, 0.1% SDS) with complete protease inhibitor cocktail (Roche, 11836170001) for 30 min on ice. For Ramos cells, cell pellets were lysed in lysis buffer (50 mM Tris-HCl, pH 8, 150 mM NaCl, 1% NP-40, 0.5% sodium deoxycholate) with complete protease inhibitor cocktail. After centrifugation at 16,000 x g, the supernatant was transferred into a new tube and the protein concentration was determined by DC protein assay (BIO-RAD, 5000116). Proteins were separated by SDS-PAGE and transferred to a PVDF membrane (Thermo scientific, 0.45 μm, 88518). For PDEδ, BRD2, GAPDH, BRD4, Vinculin and BTK, the membranes were blocked with Intercept® Blocking Buffer (LI-COR Biosciences, 927-70001) at room temperature for 1 h. The primary antibodies for these proteins were diluted with Intercept® Blocking Buffer (1:500 for PDEδ, 1:3000 for Vinculin, and 1:1000 for other proteins) and incubated with the membranes overnight at 4 °C. Membranes were washed with PBS + 0.1% Tween 20 (PBS-T) five times and incubated with secondary antibodies conjugated to IRDye® Infrared Fluorescent Dyes (1:5000, LI-COR Biosciences) at room temperature for 1 h with protection from light. […] Relative band intensities were quantified using Image Lab (BIO-RAD).

[2] = system: PDE6D mRNA; assay: RT-qPCR of PDE6D mRNA in Jurkat cells; assay type: cell-based; conditions: for PDE6D mRNA level (relative to DMSO control group): 6 h, Supplementary Fig. 1f
Procedure: Jurkat cells were grown in 12-well plates and treated with compounds for the indicated time. RNA was extracted using the RNeasy Plus Mini Kit (QIAGEN, 74134), and DNA was removed by DNase digestion with RNase-free DNase Set (QIAGEN, 79256). cDNA was synthesized using the QuantiTect Reverse Transcription Kit (QIAGEN, 205313). The mRNA expression level was evaluated with the QuantiFast SYBR Green PCR Kit (Qiagen, 330502), using the CFX96 Real-Time PCR Detection System (BIO-RAD Laboratories), and relative expression levels were calculated using the ΔΔCt method using GAPDH as reference[45] and analyzed in GraphPad Prism 9.0. The sequences of the primers for PDE6D were 5’-[…]-3’ (forward) and 5’-[…]-3’ (reverse). For GAPDH, the sequences were 5’-[…]-3’ (forward) and 5’-[…]-3’ (reverse). For BRD2, the sequences were 5’-[…]-3’ (forward), 5’-[…]-3’ (reverse). For BRD3, the sequences were 5’-[…]-3’ (forward), 5’-[…]-3’ (reverse). For BRD4, the sequences were 5’-[…]-3’ (forward), 5’-[…]-3’ (reverse). These primers were synthesized by Sigma-Aldrich.

[3] = molecular target: T1, PDEδ; assay: PDEδ levels by Western blot in Jurkat cells; assay type: cell-based; parameters: endogenous in cells; host or cells: Jurkat; conditions: for remaining activity at 10 µM: Jurkat, 6 h, DMSO pretreatment 2 h, then 10 μM, 6h, read-out: PDEδ/Vinculin intensity (relative to DMSO control group)
[4] = molecular target: LC3B (Homo sapiens, UniProt Q9GZQ8); assay: Thermal shift assay with LC3B; assay type: binding; conditions: 15 µM LC3B; 60 µM compound; Glo-Melt dye
Procedure: For thermal shift analysis, 15 µM of human LC3B was dispensed into 384-well plates (Hard-Shell 384-well 480 PCR plates, BioRAD #HSR4805) in buffer (50 mM Tris/HCl pH 7.4, 100 mM NaCl, 1 mM GSH and 0.02% CHAPS) with a Certus Flex liquid dispenser (Gyger). 60 µM compounds in DMSO (n4 or DMSO (0.6%) as control were added with an Echo 520 acoustic liquid handler (Labcyte). Glo-Melt dye was added (final concentration: 1/100), plates sealed with Lightcycler 480 Sealing Foils (Roche, #04 729 757 001) and mixed by short centrifugation (1 min, 60 g and room temeprature). A Lightcycler 480 II (Roche) was used for thermal shift curves with a temperature gradient from 20 to 95 °C according to the manufacturer´s protocol. Protein melting curves were analyzed, and the difference in meting temperature (ΔTm) was calculated with LightCycler Thermal Shift Analysis software (ROCHE) and visualized by Graphpad Prism (Version 9.5.1).

[5] = molecular target: T1, PDEδ; assay: PDEδ levels by Western blot in HEK293T, HAP1 and LC3B knockout HAP1 cells; assay type: cell-based; parameters: endogenous in cells; host or cells: HEK293T; HAP1 and LC3B-knockout HAP1
Procedure: as §1

[6] = system: Jurkat cells; assay: Cell viability assay (CellTiter-Glo) in Jurkat cells; assay type: cell-based; conditions: for Relative cell viability (%): Fig. 4k; for Cell viability (%) relative to DMSO: individual replicates, Supplementary Fig. 7g
Procedure: (§2) Jurkat cells (3 × 10^3) and Hep G2 cells (3.5 × 10^3) were seeded in 96-well plates in 100 μL culture medium. Cells were treated with compounds dissolved in 50 μl medium at the indicated concentration for 72 h, at the same time, one plate of cells without compounds treatment was used for the cell count at time zero. After adding 40 μl of CellTiter-Glo® reagent (Promega, G7571) to each well for 10 min at room temperature, the luminescence was measured on a Spark® Multimode Microplate Reader (Tecan). The data was analyzed by the GraphPad Prism 9.0.

[7] = as above; assay type: cell-based; conditions: human, Jurkat cells
Procedure: as §2

[8] = molecular target: BRD2 (Homo sapiens, UniProt P25440); assay: BRD2 levels by Western blot in Hep G2 and MDA-MB-231 cells (incl. RNA interference); assay type: cell-based; parameters: endogenous in cells; host or cells: Hep G2; MDA-MB-231; conditions: Hep G2 cells; 30 μM 15 for 1 h, then 10 μM 9 for 4 h
Procedure: Cells were washed with PBS and lysed in lysis buffer (50 mM Tris-HCl, pH 7.4, 150 mM NaCl, 1% Triton X-100, 1% sodium deoxycholate, 0.1% SDS) with complete protease inhibitor cocktail (Roche, 11836170001) for 30 min on ice. For Ramos cells, cell pellets were lysed in lysis buffer (50 mM Tris-HCl, pH 8, 150 mM NaCl, 1% NP-40, 0.5% sodium deoxycholate) with complete protease inhibitor cocktail. After centrifugation at 16,000 x g, the supernatant was transferred into a new tube and the protein concentration was determined by DC protein assay (BIO-RAD, 5000116). Proteins were separated by SDS-PAGE and transferred to a PVDF membrane (Thermo scientific, 0.45 μm, 88518). For PDEδ, BRD2, GAPDH, BRD4, Vinculin and BTK, the membranes were blocked with Intercept® Blocking Buffer (LI-COR Biosciences, 927-70001) at room temperature for 1 h. The primary antibodies for these proteins were diluted with Intercept® Blocking Buffer (1:500 for PDEδ, 1:3000 for Vinculin, and 1:1000 for other proteins) and incubated with the membranes overnight at 4 °C. Membranes were washed with PBS + 0.1% Tween 20 (PBS-T) five times and incubated with secondary antibodies conjugated to IRDye® Infrared Fluorescent Dyes (1:5000, LI-COR Biosciences) at room temperature for 1 h with protection from light. After washing the membrane, signals were visualized using the ChemiDoc MP Imaging System (BIO-RAD Laboratories). For detection of LC3B, BRD3, BLK, DCAF11, DDB1 RBX1, FIP200, V5- and FLAG-Tag the membranes were blocked with 5% milk in PBS-T at room temperature for 1 h. The primary antibodies for these proteins were diluted in 5% milk in PBS-T buffer (1:200 for BRD3, 1:1000 for other proteins) and incubated with the membranes overnight at 4 °C. Membranes were washed with PBS-T five times and incubated with HRP secondary antibodies (1:1500) at room temperature for 1 h. After washing the membrane, protein detection was performed using Western blotting detection reagent (Thermo Scientific, 34095) and the ChemiDoc MP Imaging System (BIO-RAD). Relative band intensities were quantified using Image Lab (BIO-RAD).

[9] = system: Hep G2 cells; assay: Cell viability assay (CellTiter-Glo) in Hep G2 cells; assay type: cell-based; conditions: Homo sapiens, HepG2, 72 h
Procedure: as §2

T1 sequence (O43924 whole entry): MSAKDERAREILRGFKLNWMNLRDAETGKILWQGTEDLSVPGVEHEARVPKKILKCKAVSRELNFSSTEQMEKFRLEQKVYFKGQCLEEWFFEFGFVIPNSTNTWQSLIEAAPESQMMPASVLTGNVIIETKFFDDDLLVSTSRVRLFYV
Chain of BRD2 (P25440 whole entry): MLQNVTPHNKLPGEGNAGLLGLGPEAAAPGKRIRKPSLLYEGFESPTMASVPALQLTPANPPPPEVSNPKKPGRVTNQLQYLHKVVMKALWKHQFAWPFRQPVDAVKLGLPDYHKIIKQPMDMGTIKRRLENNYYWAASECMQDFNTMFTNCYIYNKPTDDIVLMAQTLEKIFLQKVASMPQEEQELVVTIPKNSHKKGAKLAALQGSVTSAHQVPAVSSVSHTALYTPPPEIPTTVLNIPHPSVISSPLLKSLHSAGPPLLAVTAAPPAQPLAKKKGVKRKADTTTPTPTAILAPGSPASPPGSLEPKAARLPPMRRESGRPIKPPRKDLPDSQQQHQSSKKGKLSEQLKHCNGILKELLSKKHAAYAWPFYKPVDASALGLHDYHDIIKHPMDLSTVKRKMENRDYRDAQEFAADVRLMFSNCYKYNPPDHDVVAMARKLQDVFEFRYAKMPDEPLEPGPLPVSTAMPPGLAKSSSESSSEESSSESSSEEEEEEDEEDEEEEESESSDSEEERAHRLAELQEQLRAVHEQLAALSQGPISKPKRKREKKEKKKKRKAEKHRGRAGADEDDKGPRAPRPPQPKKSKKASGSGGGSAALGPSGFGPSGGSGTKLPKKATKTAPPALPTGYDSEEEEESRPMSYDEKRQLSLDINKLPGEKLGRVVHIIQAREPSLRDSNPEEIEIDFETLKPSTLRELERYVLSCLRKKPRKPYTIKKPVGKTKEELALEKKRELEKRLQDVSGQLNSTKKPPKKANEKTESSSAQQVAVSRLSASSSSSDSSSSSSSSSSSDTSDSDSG

In the case of `Cc1ccc(-n2nc3c(=O)n(CCCC(=O)NCCc4ccc(C(=O)NCCOCCOCCOCCOc5c(Br)cc(/C=C6\C(=O)Nc7ccc(Br)cc76)cc5Br)cc4)nc(C)c3c2C)cc1` [Compound 5], the “PDEδ protein level (relative to DMSO control group)” value ([1]; Dox-inducible DDB1 knockout KBM7 cells pretreated with 0.5 ug/mL Dox for 3 days) is reported as “abolished”, the “PDEδ protein level (relative to DMSO control group)” value ([1]; Dox-inducible DDB1 knockout KBM7 cells, no Dox (DMSO)) is reported as 44.238 and 44.9587 and 52.5197 and 56.1328 and the “PDE6D mRNA level (relative to DMSO control group)” value ([2]; 3 μM) is reported as 141.721 and 114.564 and 90.7441. For the same compound, the “PDE6D mRNA level (relative to DMSO control group)” value ([2]; 10 μM) was 145.389 and 133.515 and 106.183, the “PDEδ mRNA levels (in words)” value ([2]; 6 h treatment) was “no reduction in mRNA levels” and the PDEδ degradation ([3]; 10 µM, 18 h incubation) was “ca. 75%”. The remaining activity at 10 µM ([3]; Fig. 1g) was 43.9%, the remaining activity at 10 µM ([3]; Fig. 1d) was 44.2% and the “hook effect in PDEδ degradation” value ([3]; up to 10 µM concentration) was “no hook effect”. The “change of melting temperature of LC3B (ΔTm)” value [4] was “did not change the thermal stability”, the “PDEδ degradation in HEK293T and HAP1 cell lines” value ([5]; 5 μM or 10 μM) was “degraded” and the “PDEδ degradation in LC3B knockout HAP1 cells” value ([5]; LC3B knockout HAP1 cells) was “induced PDEδ degradation”.
With `COCCCN(C(=O)CCl)C(C(=O)NCc1ccccc1)c1ccc(Cl)c(Cl)c1` (centres unmarked) [Compound 15, reference compound] the GI50 ([6]; Homo sapiens, Jurkat cells, 72 h) was 1.7 ± 0.2 µM, the “Relative cell viability (%)” value ([6]; Jurkat cells, 72 h, 10 nM, 0.01 µM) was 107.976% and 98.062% and the “Relative cell viability (%)” value ([6]; Jurkat cells, 72 h, 30 nM, 0.03 µM) was 111.548% and 108.416%. The “Relative cell viability (%)” value ([6]; Jurkat cells, 72 h, 100 nM, 0.1 µM) was 104.746% and 97.0657%, the “Relative cell viability (%)” value ([6]; Jurkat cells, 72 h, 300 nM, 0.3 µM) was 101.886% and 95.5624% and the “Relative cell viability (%)” value ([6]; Jurkat cells, 72 h, 1000 nM, 1 µM) was 76.2485% and 79.6366%. The “Relative cell viability (%)” value ([6]; Jurkat cells, 72 h, 3000 nM, 3 µM) was -0.04609% and 0.01061% and 0.06492%, the “Relative cell viability (%)” value ([6]; Jurkat cells, 72 h, 10000 nM, 10 µM) was -0.2034% and -0.1473% and -0.1406% and the “Relative cell viability (%)” value ([6]; Jurkat cells, 72 h, 30000 nM, 30 µM) was -0.2515% and -0.2135% and -0.2133%. The “Cell viability (%) relative to DMSO” value ([6]; concentration 10 nmol/L) was 93.1923% and 103.02%, the “Cell viability (%) relative to DMSO” value ([6]; concentration 30 nmol/L) was 89.995% and 103.027% and the “Cell viability (%) relative to DMSO” value ([6]; concentration 100 nmol/L) was 81.9055% and 90.259% and 101.913%. For the same compound, the “Cell viability (%) relative to DMSO” value ([6]; concentration 300 nmol/L) was 82.6491% and 87.803% and 104.249%, the “Cell viability (%) relative to DMSO” value ([6]; concentration 1000 nmol/L) was 80.0935% and 85.5797% and 108.086% and the “Cell viability (%) relative to DMSO” value ([6]; concentration 3000 nmol/L) was 49.5057% and 68.1876% and 85.0918%. For the same compound, the “Cell viability (%) relative to DMSO” value ([6]; concentration 10000 nmol/L) was 0.002496% and -0.07521% and -0.05875%, the “Cell viability (%) relative to DMSO” value ([6]; concentration 30000 nmol/L) was -0.1172% and -0.221% and -0.2298% and the viability at 72 h, 10 nmol/L ([7]; concentration 10 nmol/L, individual replicates, Supplementary Fig. 7g, read-out: Cell viability (%) relative to DMSO) was 90.9%. The viability at 72 h, 30 nmol/L ([7]; concentration 30 nmol/L, individual replicates, Supplementary Fig. 7g, read-out: Cell viability (%) relative to DMSO) was 89%, the viability at 72 h, 0.01 µM ([7]; 72 h, 10 nM, Fig. 4k, read-out: Relative cell viability (%)) was 98.2% and the viability at 72 h, 0.03 µM ([7]; 72 h, 30 nM, Fig. 4k, read-out: Relative cell viability (%)) was 95.3%. For the same compound, the viability at 72 h, 0.1 µM ([7]; 72 h, 100 nM, Fig. 4k, read-out: Relative cell viability (%)) was 97.5%, the viability at 72 h, 0.3 µM ([7]; 72 h, 300 nM, Fig. 4k, read-out: Relative cell viability (%)) was 89.8% and the viability at 72 h, 1 µM ([7]; 72 h, 1000 nM, Fig. 4k, read-out: Relative cell viability (%)) was 69.4%. The “effect of pretreatment on BRD2 degradation by 9” value [8] was “impaired the degradation of BRD2” and the GI50 [9] was 6.5 ± 1.8 µM.
